The nature of test [1]: Compound was evaluated for mean surviving fraction of Chinese hamster V79 cells following a 1-h exposure to H2O2. In kind it is functional, Cricetulus griseus.
A short description of test [2]: Compound was evaluated for mean surviving fraction of Chinese hamster V79 cells following a 12-Gy dose of radiation. The format is functional, Cricetulus griseus.

Each structure is given as a SMILES string.

As to `CC1(C)CCC(C)(C)N1O`, the H2O2 prot in test [1] is 2.3. This compound also registered a Radiation prot in test [2] of 0.7.

Values taken from ChEMBL document CHEMBL1131290, “Studies of structure-activity relationship of nitroxide free radicals and their precursors as modifiers against oxidative damage” (1998).
